Assay results as given in patent US10517889B2, “Modulators of SMAD7 expression” (Ionis Pharmaceuticals, Inc., priority 2017, dated 2019).
Strand notation (5' to 3'): a small letter for the sugar, then the base; units joined by * are phosphorothioate-linked, units joined directly phosphodiester-linked; [ ] holds rarer units or linkages, { } end groups; capitals alone tell only the bases. k = constrained ethyl (cEt); [5mC] = 5-methylcytosine; d = 2'-deoxy (DNA)

System: human SMAD7 mRNA
Experiment: Antisense inhibition of human SMAD7 mRNA expression in Hep3B cells by 3-10-3 cEt gapmers, 10,000 nM, electroporation (Example 2)
Format: cell-based
Settings: approximately 24 hours
Summary of the method: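 Hep3B cells (20,000/well) were electroporated with 10,000 nM 3-10-3 cEt gapmer (16-mer, phosphorothioate, 5-methylcytosines) and harvested after about 24 h. SMAD7 mRNA quantified by RT-qPCR with primer probe set RTS5062, normalized to total RNA by RiboGreen; percent inhibition relative to untreated cells.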

[1] = Hep3B cells, electroporation with 10,000 nM antisense oligonucleotide, SMAD7 mRNA by RT-PCR (RTS5062), relative to untreated control cells
[2] = Hep3B cells, 10,000 nM antisense oligonucleotide, electroporation, RT-PCR primer probe set RTS5062, relative to untreated control cells
[3] = SMAD7 mRNA, Hep3B cells, electroporation with 10,000 nM antisense oligonucleotide, primer probe set RTS5062, relative to untreated control cells
[4] = Hep3B cells, electroporation with 10,000 nM antisense oligonucleotide, RTS5062, percent inhibition of SMAD7 mRNA relative to untreated control cells
[5] = Hep3B cells, electroporation with 10,000 nM antisense oligonucleotide, primer probe set RTS5062, relative to untreated control cells

In the case of “799869 (k[5mC]*k[5mC]*kA*dT*dA*dA*dA*d[5mC]*dA*dT*dG*dG*dG*k[5mC]*kT*k[5mC]; antisense) [compound 799869]”, the “% Inhibition” value [1] is reported as 16%.
“790531 (kT*kG*k[5mC]*dT*dG*dA*dT*dG*dA*dA*d[5mC]*dT*dG*kG*k[5mC]*kG; antisense) [compound 790531]” was tested, and the “% Inhibition” value [2] was 8%.
With “800006 (k[5mC]*kA*kA*dG*dG*dA*dA*dT*dT*dT*dT*d[5mC]*d[5mC]*k[5mC]*k[5mC]*kT; antisense) [compound 800006]” the “% Inhibition” value [1] was 41%.
In the case of “799917 (antisense kT*kG*kG*dA*dG*dA*dA*dT*dG*dT*dA*dA*dT*kT*kG*kA) [compound 799917]”, the “% Inhibition” value [2] is reported as 17%.
“830102 (kA*kG*k[5mC]*d[5mC]*d[5mC]*dG*d[5mC]*dT*d[5mC]*dT*d[5mC]*dA*dG*k[5mC]*k[5mC]*kA; antisense) [compound 830102]” was tested, and the “% Inhibition” value [1] was 43%.
“829999 (k[5mC]*kT*kG*dT*dT*dT*dG*dT*d[5mC]*dT*dT*dA*dG*k[5mC]*kT*kG; antisense) [compound 829999]” was tested, and the “% Inhibition” value [3] was 46%.
For “829947 (kG*kG*kG*d[5mC]*dA*dG*d[5mC]*d[5mC]*dA*dG*dT*dT*dA*kA*kT*k[5mC]; antisense) [compound 829947]”, the “% Inhibition” value [3] was 31%.
“799786 (kA*k[5mC]*kA*dG*dA*dA*dG*d[5mC]*dT*dG*d[5mC]*d[5mC]*d[5mC]*k[5mC]*kT*kG; antisense) [compound 799786]” was tested, and the “% Inhibition” value [4] was 0%.
“799819 (antisense k[5mC]*k[5mC]*k[5mC]*d[5mC]*dA*d[5mC]*dT*dG*dA*dG*d[5mC]*dA*dG*kG*kA*kG) [compound 799819]” was tested, and the “% inhibition of SMAD7 mRNA expression” value (Hep3B cells, electroporation, 10,000 nM antisense oligonucleotide, RTS5062, relative to untreated control cells) was 26%.
With “799182 (antisense kG*kT*kA*dG*dT*dT*dA*dG*dA*dA*dA*dA*dA*kT*kA*kG) [compound 799182]” the “% Inhibition” value [5] was 20%.
With “829741 (antisense k[5mC]*k[5mC]*kG*dG*dA*d[5mC]*dG*dA*dG*d[5mC]*dG*d[5mC]*dA*kG*kA*kT) [compound 829741]” the “% Inhibition” value (SMAD7 mRNA, Hep3B cells, 10,000 nM antisense oligonucleotide, electroporation, primer probe set RTS5062, relative to untreated control cells) was 32%.
In the case of “799728 (antisense k[5mC]*kG*kG*dA*dG*dA*dG*dG*dA*dA*dG*d[5mC]*d[5mC]*kT*k[5mC]*kT) [compound 799728]”, the “% Inhibition” value [4] is reported as 37%.
“798889 (k[5mC]*kA*k[5mC]*dA*dA*dA*dG*d[5mC]*dT*dG*dA*dT*d[5mC]*kT*kG*k[5mC]; antisense) [compound 798889]” was tested, and the “% Inhibition” value [2] was 0%.
“799095 (antisense kA*k[5mC]*k[5mC]*dT*dG*dA*dT*dG*dT*d[5mC]*dA*d[5mC]*d[5mC]*kA*kG*kG) [compound 799095]” was tested, and the “% Inhibition” value [5] was 0%.
For “799269 (antisense kA*kG*kA*d[5mC]*dT*d[5mC]*d[5mC]*dA*dG*dT*dT*d[5mC]*dG*kG*k[5mC]*k[5mC]) [compound 799269]”, the “% inhibition of SMAD7 mRNA expression” value (Hep3B cells, electroporation, 10,000 nM, 3-10-3 cEt gapmers targeting SEQ ID NO: 3 and 4) was 20%.
For “790507 (kA*kA*kG*dA*dA*dG*dT*dT*dG*dG*dG*dA*dA*kT*k[5mC]*kT; antisense) [compound 790507]”, the “% Inhibition” value [2] was 0%.
In the case of “799944 (antisense k[5mC]*kT*kG*d[5mC]*dA*dG*d[5mC]*dA*dA*dG*dA*dA*dG*kT*kG*kG) [compound 799944]”, the “% Inhibition” value [1] is reported as 5%.
For “799384 (antisense kG*kG*k[5mC]*dA*d[5mC]*dA*dA*dA*dA*dA*d[5mC]*d[5mC]*dA*kA*kG*kG) [compound 799384]”, the “% inhibition of SMAD7 mRNA expression” value [5] was 40%.
“829814 (kG*kT*k[5mC]*dT*dG*d[5mC]*dA*dG*dT*dT*dG*dG*dT*kT*kT*kG; antisense) [compound 829814]” was tested, and the “% Inhibition” value [3] was 94%.
“790620 (kT*kA*kA*dT*dA*dA*dA*dT*d[5mC]*dT*d[5mC]*dA*dG*kG*kT*kT; antisense) [compound 790620]” was tested, and the “% Inhibition” value [5] was 30%.
In the case of “829986 (k[5mC]*kG*kA*dG*dG*d[5mC]*dG*dG*dT*dG*dA*dT*dT*kG*k[5mC]*k[5mC]; antisense) [compound 829986]”, the “% Inhibition” value [3] is reported as 28%.
In the case of “799155 (antisense kA*kG*kA*dA*dG*dA*dG*dT*dT*dA*dG*dG*dT*kG*kT*k[5mC]) [compound 799155]”, the “% Inhibition” value [5] is reported as 32%.
